Data as given in patent US20190375786A1, “STABLE PEPTIDES AND METHODS OF USE THEREOF” (Fred Hutchinson Cancer Research Center, priority 2016, published 2019).
Positions of bridges follow the written chain, without caps; N, C: chain ends. Residues, ends and D or L forms follow the SMILES beside them.

Key:
trypsin = trypsin (Sus scrofa, UniProt P00761); assay: Trypsin digestion resistance of soluble peptide, RP-HPLC; format: in vitro ADME, porcine; design: purchased Sigma Aldrich 6567; conditions: 500 U/ml trypsin, 30 minutes at 37.5° C.; HPLC peak vs untreated peptide
trypsin, sequence (P00761 9-231): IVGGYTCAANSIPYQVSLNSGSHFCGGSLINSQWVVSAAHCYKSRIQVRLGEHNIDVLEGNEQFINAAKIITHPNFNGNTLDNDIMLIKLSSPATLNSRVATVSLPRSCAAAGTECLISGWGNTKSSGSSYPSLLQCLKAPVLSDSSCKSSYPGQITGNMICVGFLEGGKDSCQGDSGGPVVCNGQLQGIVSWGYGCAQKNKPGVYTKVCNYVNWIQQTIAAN
In short: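 12.5 μg soluble peptide digested with 500 U/ml porcine trypsin in PBS, 30 min at 37.5° C; quenched with soybean trypsin inhibitor, with or without 10 mM DTT reduction afterwards. Intact peptide assessed by C-18 RP-HPLC, 5-45% acetonitrile/0.1% TFA gradient over 10 min.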

pepsin = pepsin (Sus scrofa, UniProt P00791); assay: Pepsin digestion resistance in simulated gastric fluid, RP-HPLC; format: in vitro ADME, porcine; design: purchased Sigma Aldrich P7012; conditions: 500 U/ml pepsin in SGF pH 1.05, 30 minutes at 37.5° C.; HPLC peak vs untreated peptide
pepsin, sequence (P00791 60-385): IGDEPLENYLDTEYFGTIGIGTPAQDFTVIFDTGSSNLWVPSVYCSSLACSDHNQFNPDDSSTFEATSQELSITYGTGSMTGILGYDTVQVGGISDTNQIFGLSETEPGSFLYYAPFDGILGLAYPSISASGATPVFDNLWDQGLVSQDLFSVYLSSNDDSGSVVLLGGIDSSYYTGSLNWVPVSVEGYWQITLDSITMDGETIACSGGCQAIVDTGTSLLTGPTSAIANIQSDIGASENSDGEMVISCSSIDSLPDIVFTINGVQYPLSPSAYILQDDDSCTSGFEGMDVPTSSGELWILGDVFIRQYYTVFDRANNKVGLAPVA
In short: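 Peptide (12.5 μg) incubated 30 min at 37.5 °C with or without 500 U/ml pepsin in simulated gastric fluid (pH 1.05; 2% NaCl in 0.7% HCl); some reactions quenched with 100 mM Tris and 10 mM DTT. Intact peptide followed by C-18 RP-HPLC (5–45% acetonitrile/0.1% TFA over 10 min) at 214 and 280 nm.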

SMILES	Resistance to Trypsin (500 U/ml) (trypsin)	Resistance to Pepsin (500 U/ml) (pepsin)
CC[C@H](C)[C@@H]1NC(=O)[C@@H]2CSSC[C@H](NC(=O)[C@H](CCCCN)NC(=O)[C@@H](NC(=O)[C@H](CC(N)=O)NC(=O)[C@@H](NC(=O)[C@@H]3CCCN3C(=O)[C@@H](NC(=O)CNC(=O)[C@H](CO)NC(=O)CN)C(C)C)[C@@H](C)CC)C(C)C)C(=O)N[C@@H](CCCNC(=N)N)C(=O)NCC(=O)N[C@@H](CO)C(=O)N[C@@H](CCCNC(=N)N)C(=O)N[C@@H](CC(=O)O)C(=O)N[C@H]3CSSC[C@H](NC(=O)[C@H](CCCCN)NC(=O)[C@H](CO)NC(=O)[C@H](CC(N)=O)NC1=O)C(=O)N[C@@H](Cc1c[nH]cn1)C(=O)N[C@H](C(=O)N[C@H](C(=O)N1CCC[C@H]1C(=O)O)[C@@H](C)O)CSSC[C@H](NC(=O)[C@@H]1CCCN1C(=O)[C@H](CC(=O)O)NC(=O)[C@H](CC(C)C)NC3=O)C(=O)N[C@@H](CCCCN)C(=O)N[C@@H](CCCCN)C(=O)N[C@@H](C)C(=O)NCC(=O)N[C@@H](CCSC)C(=O)N[C@@H](CCCNC(=N)N)C(=O)N[C@@H](Cc1ccccc1)C(=O)NCC(=O)N[C@@H](CCCCN)C(=O)N2 [compound 27] (H-GSGVPINVKCRGSRDCLDPCKKAGMRFGKCINSKCHCTP-OH; disulfide 10-30, 16-35, 20-37)	High (A peptide classified as high indicates that the majority (at least 75%) of the HPLC peak of the treated peptide is still present as compared to the HPLC peak of the untreated peptide)	High (A peptide classified as high indicates that the majority (at least 75%) of the HPLC peak of the treated peptide is still present as compared to the HPLC peak of the untreated peptide)
CC[C@H](C)[C@@H]1NC(=O)[C@@H](NC(=O)[C@H](CC(=O)O)NC(=O)[C@H](CCCCN)NC(=O)[C@H](CCC(=O)O)NC(=O)[C@H](CO)NC(=O)[C@H](CO)NC(=O)CN)CSSC[C@@H]2NC(=O)[C@@H]3CSSC[C@@H](C(=O)N[C@@H](CCCNC(=N)N)C(=O)O)NC(=O)[C@H](CCCNC(=N)N)NC(=O)[C@H](CCCCN)NC(=O)[C@H](CCC(=O)O)NC(=O)[C@@H]4CCCN4C(=O)[C@H](CC(N)=O)NC(=O)[C@H]([C@@H](C)O)NC(=O)CNC(=O)[C@H](CCCNC(=N)N)NC(=O)[C@H](CCCNC(=N)N)NC(=O)[C@H](CO)NC(=O)[C@H](CSSC[C@H](NC(=O)[C@H](CCCNC(=N)N)NC(=O)[C@H](CCC(N)=O)NC(=O)[C@H](CC(C)C)NC(=O)[C@H](Cc4c[nH]cn4)NC(=O)[C@H](CCCCN)NC1=O)C(=O)N[C@@H](CCCNC(=N)N)C(=O)N[C@@H](CCC(=O)O)C(=O)N[C@@H](CC(N)=O)C(=O)N[C@@H](CCCCN)C(=O)N[C@@H](CC(=O)O)C(=O)N3)NC(=O)[C@H](CCCCN)NC(=O)[C@H](CCCCN)NC(=O)[C@H](CO)NC2=O [compound 29] (H-GSSEKDCIKHLQRCRENKDCCSKKCSRRGTNPEKRCR-OH; disulfide 7-21, 14-25, 20-36)	Low (A peptide classified as low indicates that the majority (over 75%) of the HPLC peak of the treated peptide disappeared as compared to the HPLC peak of the untreated peptide)	High (A peptide classified as high indicates that the majority (at least 75%) of the HPLC peak of the treated peptide is still present as compared to the HPLC peak of the untreated peptide)
CC[C@H](C)[C@@H]1NC(=O)[C@H](CCC(=O)O)NC(=O)[C@H](CCCNC(=N)N)NC(=O)[C@H](CCCNC(=N)N)NC(=O)[C@@H]2CSSC[C@@H](C(=O)N[C@@H](Cc3ccc(O)cc3)C(=O)N[C@@H](CCCNC(=N)N)C(=O)N[C@@H](CC(N)=O)C(=O)O)NC(=O)[C@H](C(C)C)NC(=O)[C@@H]3CSSC[C@H](NC(=O)[C@H](CO)NC(=O)CNC(=O)CNC(=O)[C@H](CCC(N)=O)NC(=O)[C@@H](NC(=O)[C@H](CCCCN)NC(=O)[C@@H](NC(=O)[C@H](CC(N)=O)NC(=O)[C@@H](NC(=O)[C@H](CCC(N)=O)NC(=O)[C@@H](NC(=O)[C@H](CCC(N)=O)NC(=O)[C@H](CO)NC(=O)CN)C(C)C)[C@@H](C)O)C(C)C)CSSC[C@H](NC(=O)[C@H](CCCCN)NC(=O)CNC(=O)[C@H](C)NC(=O)[C@H](C)NC(=O)[C@H](C(C)C)NC(=O)CNC1=O)C(=O)N[C@@H]([C@@H](C)CC)C(=O)N[C@@H](CC(N)=O)C(=O)NCC(=O)N[C@@H](CCCCN)C(=O)N3)C(=O)N[C@@H](C)C(=O)N[C@@H](CO)C(=O)N[C@@H](C(C)C)C(=O)N2 [compound 30] (H-GSQVQTNVKCQGGSCASVCRREIGVAAGKCINGKCVCYRN-OH; disulfide 10-30, 15-35, 19-37)	Low (A peptide classified as low indicates that the majority (over 75%) of the HPLC peak of the treated peptide disappeared as compared to the HPLC peak of the untreated peptide)	Moderate (A peptide classified as medium indicates that about half (between 25% and 75%) of the HPLC peak of the treated peptide disappeared as compared to the HPLC peak of the untreated peptide)
CC[C@H](C)[C@@H]1NC(=O)[C@@H]2CSSC[C@H](NC(=O)[C@H](CCCCN)NC(=O)[C@@H](NC(=O)[C@H](CC(N)=O)NC(=O)[C@@H](NC(=O)[C@H](CC(=O)O)NC(=O)[C@@H](NC(=O)[C@H](CCC(N)=O)NC(=O)[C@H](CO)NC(=O)CN)[C@@H](C)CC)[C@@H](C)O)C(C)C)C(=O)N[C@@H](CO)C(=O)NCC(=O)N[C@@H](CO)C(=O)N[C@@H](CO)C(=O)N[C@@H](CCCCN)C(=O)N[C@H]3CSSC[C@H](NC(=O)[C@H](CCCNC(=N)N)NC(=O)CNC(=O)[C@H](CC(N)=O)NC1=O)C(=O)N[C@@H]([C@@H](C)O)C(=O)N[C@H](C(=O)N[C@@H](Cc1ccc(O)cc1)C(=O)N1CCC[C@H]1C(=O)O)CSSC[C@H](NC(=O)[C@H]([C@@H](C)CC)NC(=O)[C@H](CCCCN)NC(=O)[C@H](C(C)C)NC3=O)C(=O)N[C@@H]([C@@H](C)CC)C(=O)N[C@@H](CC(=O)O)C(=O)N[C@@H](CCCNC(=N)N)C(=O)N[C@@H](Cc1ccc(O)cc1)C(=O)N[C@@H](CC(N)=O)C(=O)N[C@@H]([C@@H](C)O)C(=O)N[C@@H](CCCNC(=N)N)C(=O)NCC(=O)N[C@@H](C)C(=O)N[C@@H](CCCCN)C(=O)N2 [compound 35] (H-GSQIDTNVKCSGSSKCVKICIDRYNTRGAKCINGRCTCYP-OH; disulfide 10-31, 16-36, 20-38)	Low (A peptide classified as low indicates that the majority (over 75%) of the HPLC peak of the treated peptide disappeared as compared to the HPLC peak of the untreated peptide)	Low (A peptide classified as low indicates that the majority (over 75%) of the HPLC peak of the treated peptide disappeared as compared to the HPLC peak of the untreated peptide)
CC[C@H](C)[C@H](NC(=O)[C@@H](NC(=O)[C@@H](NC(=O)[C@H](CO)NC(=O)CN)C(C)C)C(C)C)C(=O)NCC(=O)N[C@@H](CCC(N)=O)C(=O)N[C@@H](CCCNC(=N)N)C(=O)N[C@H]1CSSC[C@@H]2NC(=O)[C@H](CCCCN)NC(=O)CNC(=O)[C@H]([C@@H](C)O)NC(=O)[C@H](C)NC(=O)[C@H](CCCCN)NC(=O)CNC(=O)[C@H](C(C)C)NC(=O)[C@H](CC(C)C)NC(=O)[C@H](CCCCN)NC(=O)[C@H](CCCCN)NC(=O)[C@@H]3CSSC[C@@H](C(=O)O)NC(=O)[C@H](CC(=O)O)NC(=O)[C@H](CSSC[C@H](NC(=O)[C@H](CC(=O)O)NC(=O)[C@@H]4CCCN4C(=O)[C@H](CO)NC(=O)[C@H](CCCNC(=N)N)NC(=O)[C@H](Cc4ccc(O)cc4)NC1=O)C(=O)N[C@@H](Cc1ccc(O)cc1)C(=O)N[C@@H](CO)C(=O)N[C@@H](C)C(=O)N3)NC(=O)[C@H](CCCNC(=N)N)NC(=O)CNC(=O)[C@H](CC(N)=O)NC(=O)[C@H]([C@@H](C)O)NC2=O [compound 36] (H-GSVVIGQRCYRSPDCYSACKKLVGKATGKCTNGRCDC-OH; disulfide 9-30, 15-35, 19-37)	Low (A peptide classified as low indicates that the majority (over 75%) of the HPLC peak of the treated peptide disappeared as compared to the HPLC peak of the untreated peptide)	High (A peptide classified as high indicates that the majority (at least 75%) of the HPLC peak of the treated peptide is still present as compared to the HPLC peak of the untreated peptide)
CC[C@H](C)[C@@H]1NC(=O)[C@H](C)NC(=O)[C@H](CCC(=O)O)NC(=O)[C@H](CCCCN)NC(=O)[C@@H]2CSSC[C@@H](C(=O)N[C@@H](Cc3ccc(O)cc3)C(=O)N3CCC[C@H]3C(=O)O)NC(=O)[C@H](CCCCN)NC(=O)[C@@H]3CSSC[C@H](NC(=O)[C@H](CCC(=O)O)NC(=O)[C@@H]4CCCN4C(=O)[C@H](CO)NC(=O)CNC(=O)[C@H](CCCNC(=N)N)NC(=O)[C@@H](NC(=O)[C@H](CCCCN)NC(=O)[C@@H](NC(=O)[C@H](CC(N)=O)NC(=O)[C@@H](NC(=O)[C@H](Cc4ccccc4)NC(=O)[C@@H](NC(=O)[C@H](CO)NC(=O)CN)C(C)C)[C@@H](C)CC)C(C)C)CSSC[C@H](NC(=O)[C@H](CCCCN)NC(=O)CNC(=O)[C@H](C)NC(=O)[C@H](CO)NC(=O)[C@H](CCCCN)NC(=O)CNC1=O)C(=O)N[C@@H](CCSC)C(=O)N[C@@H](CC(N)=O)C(=O)NCC(=O)N[C@@H](CCCCN)C(=O)N3)C(=O)N[C@@H](CC(C)C)C(=O)N1CCC[C@H]1C(=O)N[C@@H](CCCCN)C(=O)N2 [compound 37] (H-GSVFINVKCRGSPECLPKCKEAIGKSAGKCMNGKCKCYP-OH; disulfide 9-30, 15-35, 19-37)	Low (A peptide classified as low indicates that the majority (over 75%) of the HPLC peak of the treated peptide disappeared as compared to the HPLC peak of the untreated peptide)	High (A peptide classified as high indicates that the majority (at least 75%) of the HPLC peak of the treated peptide is still present as compared to the HPLC peak of the untreated peptide)
